Measured values as given in ChEMBL document CHEMBL2150859, “Design, synthesis, and evaluation of 3,5-disubstituted 7-azaindoles as Trk inhibitors with anticancer and antiangiogenic activities” (J Med Chem, 2012).

How the values were obtained:
[1] = biological target: T1, High affinity nerve growth factor receptor (Homo sapiens, UniProt P04629); assay: Inhibition of TRKA assessed as [gamma33P]ATP incorporation into substrate
Target sequence in this assay (P04629 whole entry): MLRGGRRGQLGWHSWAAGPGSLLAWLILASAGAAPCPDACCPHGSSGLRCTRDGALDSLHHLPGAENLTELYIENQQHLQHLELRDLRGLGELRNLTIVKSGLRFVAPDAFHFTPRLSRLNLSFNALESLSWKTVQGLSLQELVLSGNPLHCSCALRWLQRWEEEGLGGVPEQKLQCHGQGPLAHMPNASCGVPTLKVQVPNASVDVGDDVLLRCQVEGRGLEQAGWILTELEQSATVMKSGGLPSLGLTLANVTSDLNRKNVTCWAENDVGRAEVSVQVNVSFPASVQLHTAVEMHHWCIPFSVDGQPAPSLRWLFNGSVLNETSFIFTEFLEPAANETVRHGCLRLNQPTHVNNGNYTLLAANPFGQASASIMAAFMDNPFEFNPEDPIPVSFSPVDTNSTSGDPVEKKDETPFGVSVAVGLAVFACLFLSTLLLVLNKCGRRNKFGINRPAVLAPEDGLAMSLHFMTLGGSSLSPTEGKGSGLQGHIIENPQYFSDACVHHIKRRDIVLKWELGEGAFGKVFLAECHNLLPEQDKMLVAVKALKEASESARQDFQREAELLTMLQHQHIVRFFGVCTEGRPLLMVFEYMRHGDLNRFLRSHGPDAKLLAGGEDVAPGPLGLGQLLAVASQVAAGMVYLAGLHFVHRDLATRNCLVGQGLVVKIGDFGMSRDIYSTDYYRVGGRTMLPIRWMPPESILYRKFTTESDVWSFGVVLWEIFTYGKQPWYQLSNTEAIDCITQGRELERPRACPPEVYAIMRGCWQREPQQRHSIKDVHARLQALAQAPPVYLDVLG

[2] = test system: MCF7; assay: cells; details: Homo sapiens, MCF7, 48 h
Description: Cytotoxicity against human MCF7 cells after 48 hrs by MTT assay

[3] = biological target: T1, High affinity nerve growth factor receptor; assay: Binding affinity to TRKA by high throughput assay
Target sequence in this assay (P04629 whole entry): as above

[4] = biological target: T2, Phosphatidylinositol 4,5-bisphosphate 3-kinase catalytic subunit alpha isoform (Homo sapiens, UniProt P42336); assay: Binding affinity to PI3Kalpha at 10 uM by high throughput binding assay relative to control
[5] = biological target: T1, High affinity nerve growth factor receptor; assay: Binding affinity to TRKA at 10 uM by high throughput binding assay relative to control
Target sequence in this assay (P04629 33-796 limits assumed): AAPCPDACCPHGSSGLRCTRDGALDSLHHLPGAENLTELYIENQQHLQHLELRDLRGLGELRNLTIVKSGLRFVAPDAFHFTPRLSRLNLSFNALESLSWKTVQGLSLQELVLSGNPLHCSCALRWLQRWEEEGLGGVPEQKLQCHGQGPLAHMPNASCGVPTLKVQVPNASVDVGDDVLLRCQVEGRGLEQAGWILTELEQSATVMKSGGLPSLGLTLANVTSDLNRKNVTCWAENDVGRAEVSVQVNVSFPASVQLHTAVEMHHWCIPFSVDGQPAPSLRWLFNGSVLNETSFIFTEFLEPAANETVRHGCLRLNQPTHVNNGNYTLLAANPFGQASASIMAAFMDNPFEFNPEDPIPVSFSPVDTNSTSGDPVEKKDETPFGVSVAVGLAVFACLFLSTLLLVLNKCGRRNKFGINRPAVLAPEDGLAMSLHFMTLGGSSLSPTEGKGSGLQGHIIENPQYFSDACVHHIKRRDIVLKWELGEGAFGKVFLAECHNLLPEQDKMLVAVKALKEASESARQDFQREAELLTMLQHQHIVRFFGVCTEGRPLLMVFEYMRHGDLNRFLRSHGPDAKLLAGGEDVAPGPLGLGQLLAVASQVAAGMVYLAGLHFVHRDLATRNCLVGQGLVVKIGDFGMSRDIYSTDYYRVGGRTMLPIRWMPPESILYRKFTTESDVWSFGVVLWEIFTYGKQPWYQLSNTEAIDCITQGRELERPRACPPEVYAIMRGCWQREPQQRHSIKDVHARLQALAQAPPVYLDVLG

[6] = biological target: T2, Phosphatidylinositol 4,5-bisphosphate 3-kinase catalytic subunit alpha isoform; assay: Binding affinity to PI3Kalpha by high throughput assay
[7] = Selectivity ratio of Kd for PI3Kalpha to Kd for TRKA

T2 sequence (P42336 whole entry, canonical isoform): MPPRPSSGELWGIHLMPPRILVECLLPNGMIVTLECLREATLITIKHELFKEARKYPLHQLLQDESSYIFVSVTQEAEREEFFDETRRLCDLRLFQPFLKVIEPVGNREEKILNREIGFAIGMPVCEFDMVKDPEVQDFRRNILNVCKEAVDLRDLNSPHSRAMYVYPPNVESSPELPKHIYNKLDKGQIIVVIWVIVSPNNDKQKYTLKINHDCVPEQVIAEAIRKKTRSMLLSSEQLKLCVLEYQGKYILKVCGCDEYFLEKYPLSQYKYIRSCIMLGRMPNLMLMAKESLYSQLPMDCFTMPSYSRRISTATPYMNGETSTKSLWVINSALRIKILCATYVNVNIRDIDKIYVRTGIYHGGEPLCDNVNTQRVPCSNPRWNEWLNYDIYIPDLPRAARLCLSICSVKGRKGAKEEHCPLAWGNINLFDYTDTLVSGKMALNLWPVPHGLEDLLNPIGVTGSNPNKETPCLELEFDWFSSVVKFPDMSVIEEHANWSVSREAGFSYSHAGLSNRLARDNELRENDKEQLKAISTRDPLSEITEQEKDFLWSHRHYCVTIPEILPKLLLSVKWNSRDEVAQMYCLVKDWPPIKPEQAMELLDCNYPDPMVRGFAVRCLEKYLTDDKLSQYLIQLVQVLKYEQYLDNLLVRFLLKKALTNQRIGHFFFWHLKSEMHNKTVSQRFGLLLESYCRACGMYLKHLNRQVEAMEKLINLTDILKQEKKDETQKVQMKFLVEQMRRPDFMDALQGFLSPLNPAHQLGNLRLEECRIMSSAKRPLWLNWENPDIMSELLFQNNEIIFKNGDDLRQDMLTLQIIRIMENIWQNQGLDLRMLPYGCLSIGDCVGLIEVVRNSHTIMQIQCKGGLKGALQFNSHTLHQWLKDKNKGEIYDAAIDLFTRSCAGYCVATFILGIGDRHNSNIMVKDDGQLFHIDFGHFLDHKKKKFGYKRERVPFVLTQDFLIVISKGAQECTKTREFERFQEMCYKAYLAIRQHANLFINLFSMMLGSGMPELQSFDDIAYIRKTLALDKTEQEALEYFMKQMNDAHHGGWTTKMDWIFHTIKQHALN

IC50 [1] [nM] | IC50 [2] [nM] | Kd [3] [nM] | Activity [4] [%] | Activity [5] [%] | Kd [6] [nM] | Selectivity ratio [7] | Compound
33.2 | 8700 |  |  |  |  |  | COc1ccc(-c2cnc3[nH]cc(-c4ccncc4)c3c2)cc1N
31.4 | 4500 |  |  |  |  |  | CNc1cccc(-c2cnc3[nH]cc(-c4ccncc4)c3c2)c1
25 | 7700 |  |  |  |  |  | Nc1ccc(-c2cnc3[nH]cc(-c4ccncc4)c3c2)cc1
53.7 | 12000 |  |  |  |  |  | Nc1cc(-c2cnc3[nH]cc(-c4ccncc4)c3c2)ccc1Cl
22.7 | 11700 |  |  |  |  |  | COc1cccc(-c2cnc3[nH]cc(-c4ccncc4)c3c2)c1
110 | 5400 |  |  |  |  |  | COc1ccc(N)cc1-c1cnc2[nH]cc(-c3ccncc3)c2c1
47 | 3100 |  |  |  |  |  | CN(C)CCOc1ccc(-c2cnc3[nH]cc(-c4ccncc4)c3c2)cc1N
42.7 | 2300 | 64 | 31 | 0 | 2900 |  | Nc1cccc(-c2cnc3[nH]cc(-c4ccncc4)c3c2)c1
69.6 | 5100 |  |  |  |  |  | Nc1cncc(-c2cnc3[nH]cc(-c4ccncc4)c3c2)c1
18.6 | 8500 |  |  |  |  |  | COc1cc(N)cc(-c2cnc3[nH]cc(-c4ccncc4)c3c2)c1
22.2 | 2800 |  |  |  |  |  | Cc1ccc(-c2cnc3[nH]cc(-c4ccncc4)c3c2)cc1N

Second part, the compound before the results:

Compound | IC50 [1] [nM] | IC50 [2] [nM] | Kd [3] [nM] | Activity [4] [%] | Activity [5] [%] | Kd [6] [nM] | Selectivity ratio [7]
N#Cc1cccc(-c2c[nH]c3ncc(-c4cccc(N)c4)cc23)c1 |  |  | 270 | 98 | 2.6 |  | 
CC(=O)Nc1cc(N)cc(-c2cnc3[nH]cc(-c4ccncc4)c3c2)c1 | 5.41 | > 30000 |  |  |  |  | 
Nc1cc(-c2cnc3[nH]cc(-c4ccncc4)c3c2)ccc1C(=O)N1CCOCC1 | 88.6 | 8500 |  |  |  |  | 
COc1ccc(-c2c[nH]c3ncc(-c4cncc(N)c4)cc23)cc1OC |  |  | 58 | 12 | 0.05 | 960 | 17
CC(=O)Nc1cccc(-c2cnc3[nH]cc(-c4ccncc4)c3c2)c1 | 34.3 | 9100 |  |  |  |  | 
N#Cc1cccc(-c2cnc3[nH]cc(-c4cccc(N)c4)c3c2)c1 |  |  | 110 | 48 | 0.65 | 12000 | 109
CN(C)CCOc1cc(N)cc(-c2cnc3[nH]cc(-c4ccncc4)c3c2)c1 | 13.6 | 11200 |  |  |  |  | 
COc1ccc(-c2c[nH]c3ncc(-c4cccc(C#N)c4)cc23)cc1OC |  |  |  | 69 | 26 |  | 
Nc1cc(C(=O)N2CCOCC2)cc(-c2cnc3[nH]cc(-c4ccncc4)c3c2)c1 | 64.7 | > 30000 |  |  |  |  | 
Nc1cc(OCCN2CCOCC2)cc(-c2cnc3[nH]cc(-c4ccncc4)c3c2)c1 | 8.36 | 11200 |  |  |  |  | 
Nc1ccc(NS(=O)(=O)c2ccccc2)c(-c2cnc3[nH]cc(-c4ccncc4)c3c2)c1 | 3170 |  |  |  |  |  | 
Nc1cccc(-c2cnc3[nH]cc(-c4cccnc4)c3c2)c1 |  |  | 75 | 42 | 0.2 | 4500 | 60
COc1ccc(-c2c[nH]c3ncc(-c4cccc(NS(=O)(=O)c5ccccc5)c4)cc23)cc1OC |  |  | 91 | 31 | 0.2 | 2300 | 25
Nc1cc(NS(=O)(=O)c2ccc(F)cc2F)cc(-c2cnc3[nH]cc(-c4ccncc4)c3c2)c1 | 2.97 | 6600 |  |  |  |  | 
Nc1cc(NS(=O)(=O)c2ccccc2)cc(-c2cnc3[nH]cc(-c4ccncc4)c3c2)c1 | 9.4 | 8800 |  |  |  |  | 
COc1ccc(-c2c[nH]c3ncc(-c4cncc(NS(=O)(=O)c5ccccc5)c4)cc23)cc1OC |  |  | 145 | 0.05 | 0.8 | 48 | 0.33
CS(=O)(=O)Nc1cc(N)cc(-c2cnc3[nH]cc(-c4ccncc4)c3c2)c1 | 33.8 | > 30000 |  |  |  |  | 
CN(C)c1cccc(-c2cnc3[nH]cc(-c4ccncc4)c3c2)c1 | 26.5 | 12100 |  |  |  |  | 
Nc1cccc(-c2cnc3[nH]cc(-c4ccccc4)c3c2)c1 |  |  | 88 | 100 | 0.3 |  | 
COc1ccc(-c2c[nH]c3ncc(-c4cccc(N)c4)cc23)cc1OC |  |  | 125 | 59 | 1.3 |  | 
CS(=O)(=O)Nc1cccc(-c2c[nH]c3ncc(-c4cncc(NS(=O)(=O)c5ccccc5)c4)cc23)c1 |  |  |  | 0.9 | 9.6 |  | 
Cc1ccc(S(=O)(=O)Nc2cc(N)cc(-c3cnc4[nH]cc(-c5ccncc5)c4c3)c2)cc1 | 4.62 | 10400 |  |  |  |  | 
